Measured values from US20030114357A1, “Methods related to the A-C repeat Z-sequence upstream from the aldose reductase gene” (priority 2001, published 2003).

Legend:
[1] = test system: subjects with painful, symmetrical polyneuropathy; experiment: Peroneal motor nerve conduction velocity (NCV), double-blind study placebo vs zopolrestat, 12 week change; type: in vivo, human; conditions: placebo vs combined treatment groups (250 and 500 mg zopolrestat dose)
Description: (§1) Diabetic neuropathy, a complication arising from diabetes mellitus, is an example of conditions that are mediated by having at least one allele of the (A-C)n repeat Z sequence associated with the aldose reductase gene wherein the value of n is less than 24. […] Such evaluation may be performed by measuring changes in nerve conduction velocity (NCV) in the following nerves: median motor, ulnar sensory, median sensory (both distal and proximal segments), peroneal motor and sural sensory. Testing is performed prior to the initiation of administration of the Agent and one or more times thereafter. An exemplary schedule for neuroelectrophysiology evaluation is prior to initiation of administration of the Agent and at weeks 12, 24 and 52 following initiation of administration.
(§2) Tables 1 and 2 illustrate the effect of administration of the aldose reductase inhibitor, zopolrestat, on NCV of subjects having one and two alleles of the Z sequence having less than 24 A-C repeats. […] The NCV results from Tables 1 and 2 where obtained according to the protocol described in Example 2 of the General Experimental Procedures.
(§3) The terms “1 short” and “2 short” as used in Tables 1 and 2 refers to the number of alleles found in each subject where n has a value of less than 24 for the (A-C)n repeat Z sequence. “1 short” refers to subjects having only one allele wherein n is less than 24. “2 short” refers to subjects having two alleles wherein n is less than 24. […]
Nerve Conduction Velocity (“NCV”) is defined as the maximal speed in which Compound Action Potentials are propagated within a nerve, generally reflecting the activity in the fastest and largest neurons and calculated in meters per second by dividing distance in mm by Latency. […]
3. […] Skin temperature is measured prior to and at the conclusion of testing at sites midway between the stimulating and recording electrodes for each limb. Temperature is monitored and adjusted during testing using either a feedback controlled infrared radiant heater, a water bath or a temperature controlled blanket wrap. […]

[2] = test system: subjects with painful, symmetrical polyneuropathy; experiment: Composite neuroelectrophysiology (NE) parameter (modified O'Brien score), double-blind study placebo vs zopolrestat, 12 week change; type: in vivo, human; conditions: placebo vs combined treatment groups (250 and 500 mg zopolrestat dose)
Description: as §1, §2
Composite NE parameter is calculated according to the technique described in O'Brien, P. C., Biometrics, 40, 1079-1087 (1984). For ease of interpretation, the standard composite NE parameter of O'Brien is slightly modified for Tables 1 and 2. The standard O'Brien method would give values of 0 to 1. For the modified O'Brien score, the standard O'Brien value is reduced by 0.5 to give a value in the range of −0.5 to 0.5 with an expected value of 0. Values lower than 0 correspond to an overall composite NE decrease relative to the entire patient population, while values greater than 0 correspond to a relative increase.
as §3

O=C(O)Cc1nn(Cc2nc3cc(C(F)(F)F)ccc3s2)c(=O)c2ccccc12 [zopolrestat]
Peroneal Motor 12 Week Change Mean Treatment Effect ([1]; Group 1 Short (subjects with only one Z-sequence allele n<24)): 0.22 | Peroneal Motor 12 Week Change Mean Treatment Effect ([1]; Group 2 Short (subjects with two Z-sequence alleles n<24)): 2.35 | Peroneal Motor 12 Week Change Mean Treatment Effect ([1]; Group Combined (1 short + 2 short Z-sequence alleles, n<24), NCV, calculated in meters per second): 1.63 | Composite NE Parameter (modified) 12 Week Change Mean Treatment Effect ([2]; Group 1 Short (only one Z-sequence allele n<24)): 0.04 | Composite NE Parameter (modified) 12 Week Change Mean Treatment Effect ([2]; Group 2 Short (two Z-sequence alleles n<24)): 0.09 | Composite NE Parameter (modified) 12 Week Change Mean Treatment Effect ([2]; Group Combined, range -0.5 to 0.5): 0.07
